# According to PMC3817851, “Enzyme activity effects of N-terminal His-tag attached to catalytic sub-unit of phosphoinositide-3-kinase” (Bioscience Reports, 2013):
# Legend:
# Assay type in all cases: biochemical
# [1] = molecular target: T1, p110γ (PI 3-Kγ) (Homo sapiens, UniProt P48736); experiment: HTRF lipid kinase assay
# T1 construct: gene PIK3CG; catalytic subunit only, N-His6-rTEV tag (tag removed by rTEV); baculovirus/Sf9
# [2] = molecular target: T2, p110α (PI 3-Kα, p110α/p85α) (Homo sapiens, UniProt P42336); experiment: HTRF kinetics, […] ATP; conditions: PI([…])P2 co-substrate, His-tag removed
# T2 construct: gene PIK3CA; full-length p110α with N-His6-rTEV tag (tag removed by rTEV) co-expressed with full-length p85α; baculovirus/Sf9; IMAC, MonoQ; heterodimer; with Phosphatidylinositol 3-kinase regulatory subunit alpha
# [3] = molecular target: T3, p110δ (PI 3-Kδ, p110δ/p85α) (Homo sapiens, UniProt O00329); experiment: HTRF kinetics, […] ATP; conditions: PI([…])P2 co-substrate, His-tag removed
# T3 construct: gene PIK3CD; full-length p110δ with N-His6-rTEV tag (tag removed by rTEV) co-expressed with full-length p85α; baculovirus/Sf9; IMAC, MonoQ; heterodimer; with Phosphatidylinositol 3-kinase regulatory subunit alpha
# [4] = molecular target: T4, p110β (PI 3-Kβ, p110β/p85α) (Homo sapiens, UniProt P42338); experiment: HTRF kinetics, […] ATP; conditions: PI([…])P2 co-substrate, His-tag removed
# T4 construct: gene PIK3CB; full-length p110β with N-His6-rTEV tag (tag removed by rTEV) co-expressed with full-length p85α; baculovirus/Sf9; IMAC, MonoQ; heterodimer; with Phosphatidylinositol 3-kinase regulatory subunit alpha
# [5] = molecular target: T1, p110γ (PI 3-Kγ); experiment: HTRF kinetics, […] ATP; conditions: PI([…])P2 co-substrate, His-tag removed
# [6] = molecular target: T4, p110β (PI 3-Kβ, p110β/p85α); experiment: HTRF lipid kinase assay; conditions: […] ATP, PI([…])P2 substrate, His-tag removed
# T4 sequence (P42338 whole entry): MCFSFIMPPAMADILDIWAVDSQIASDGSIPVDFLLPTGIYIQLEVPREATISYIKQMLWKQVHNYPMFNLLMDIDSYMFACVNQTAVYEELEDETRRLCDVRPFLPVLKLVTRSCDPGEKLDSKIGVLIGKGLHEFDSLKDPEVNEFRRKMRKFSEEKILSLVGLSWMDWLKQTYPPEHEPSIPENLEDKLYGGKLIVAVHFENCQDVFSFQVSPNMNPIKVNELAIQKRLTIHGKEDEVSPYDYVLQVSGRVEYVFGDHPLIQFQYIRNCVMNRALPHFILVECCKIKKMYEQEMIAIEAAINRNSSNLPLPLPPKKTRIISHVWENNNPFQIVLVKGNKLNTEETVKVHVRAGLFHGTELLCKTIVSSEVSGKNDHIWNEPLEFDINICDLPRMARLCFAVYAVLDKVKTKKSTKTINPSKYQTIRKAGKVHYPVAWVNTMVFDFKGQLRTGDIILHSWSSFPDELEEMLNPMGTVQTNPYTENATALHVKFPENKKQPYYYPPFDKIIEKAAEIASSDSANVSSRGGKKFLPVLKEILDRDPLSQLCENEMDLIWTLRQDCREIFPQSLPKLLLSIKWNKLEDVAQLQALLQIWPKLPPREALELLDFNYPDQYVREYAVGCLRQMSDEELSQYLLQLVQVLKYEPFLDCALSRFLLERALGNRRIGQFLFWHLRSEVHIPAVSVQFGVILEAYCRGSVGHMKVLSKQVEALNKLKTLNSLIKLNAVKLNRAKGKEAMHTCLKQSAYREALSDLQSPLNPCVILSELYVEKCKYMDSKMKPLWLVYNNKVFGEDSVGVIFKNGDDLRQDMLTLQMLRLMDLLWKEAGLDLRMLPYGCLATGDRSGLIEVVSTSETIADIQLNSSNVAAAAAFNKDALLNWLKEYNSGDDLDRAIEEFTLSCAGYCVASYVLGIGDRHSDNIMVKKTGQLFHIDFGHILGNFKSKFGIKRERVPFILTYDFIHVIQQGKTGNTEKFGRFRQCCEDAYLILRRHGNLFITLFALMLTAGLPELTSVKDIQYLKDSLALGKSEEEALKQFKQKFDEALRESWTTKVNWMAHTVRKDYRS
# T4 sequence (P27986 2-724 partner): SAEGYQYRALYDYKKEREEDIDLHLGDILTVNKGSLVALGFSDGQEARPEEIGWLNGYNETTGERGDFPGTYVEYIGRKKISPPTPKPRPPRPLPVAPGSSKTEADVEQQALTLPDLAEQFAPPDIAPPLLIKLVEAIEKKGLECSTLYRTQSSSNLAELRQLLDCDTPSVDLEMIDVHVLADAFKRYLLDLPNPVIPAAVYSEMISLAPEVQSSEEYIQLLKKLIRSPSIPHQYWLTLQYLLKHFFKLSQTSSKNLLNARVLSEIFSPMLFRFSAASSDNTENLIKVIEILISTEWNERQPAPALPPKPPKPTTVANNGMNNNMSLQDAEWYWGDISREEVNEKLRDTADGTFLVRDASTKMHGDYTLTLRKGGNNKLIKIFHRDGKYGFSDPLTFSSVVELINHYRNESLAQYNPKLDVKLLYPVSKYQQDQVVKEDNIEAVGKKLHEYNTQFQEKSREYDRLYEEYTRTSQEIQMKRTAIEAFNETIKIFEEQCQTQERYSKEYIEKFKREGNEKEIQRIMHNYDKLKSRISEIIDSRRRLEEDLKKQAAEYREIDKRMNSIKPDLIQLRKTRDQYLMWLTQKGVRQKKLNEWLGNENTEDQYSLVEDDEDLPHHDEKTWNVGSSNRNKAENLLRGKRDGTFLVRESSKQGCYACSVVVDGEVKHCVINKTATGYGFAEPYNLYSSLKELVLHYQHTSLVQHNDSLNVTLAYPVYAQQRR
# T1 sequence (P48736 whole entry): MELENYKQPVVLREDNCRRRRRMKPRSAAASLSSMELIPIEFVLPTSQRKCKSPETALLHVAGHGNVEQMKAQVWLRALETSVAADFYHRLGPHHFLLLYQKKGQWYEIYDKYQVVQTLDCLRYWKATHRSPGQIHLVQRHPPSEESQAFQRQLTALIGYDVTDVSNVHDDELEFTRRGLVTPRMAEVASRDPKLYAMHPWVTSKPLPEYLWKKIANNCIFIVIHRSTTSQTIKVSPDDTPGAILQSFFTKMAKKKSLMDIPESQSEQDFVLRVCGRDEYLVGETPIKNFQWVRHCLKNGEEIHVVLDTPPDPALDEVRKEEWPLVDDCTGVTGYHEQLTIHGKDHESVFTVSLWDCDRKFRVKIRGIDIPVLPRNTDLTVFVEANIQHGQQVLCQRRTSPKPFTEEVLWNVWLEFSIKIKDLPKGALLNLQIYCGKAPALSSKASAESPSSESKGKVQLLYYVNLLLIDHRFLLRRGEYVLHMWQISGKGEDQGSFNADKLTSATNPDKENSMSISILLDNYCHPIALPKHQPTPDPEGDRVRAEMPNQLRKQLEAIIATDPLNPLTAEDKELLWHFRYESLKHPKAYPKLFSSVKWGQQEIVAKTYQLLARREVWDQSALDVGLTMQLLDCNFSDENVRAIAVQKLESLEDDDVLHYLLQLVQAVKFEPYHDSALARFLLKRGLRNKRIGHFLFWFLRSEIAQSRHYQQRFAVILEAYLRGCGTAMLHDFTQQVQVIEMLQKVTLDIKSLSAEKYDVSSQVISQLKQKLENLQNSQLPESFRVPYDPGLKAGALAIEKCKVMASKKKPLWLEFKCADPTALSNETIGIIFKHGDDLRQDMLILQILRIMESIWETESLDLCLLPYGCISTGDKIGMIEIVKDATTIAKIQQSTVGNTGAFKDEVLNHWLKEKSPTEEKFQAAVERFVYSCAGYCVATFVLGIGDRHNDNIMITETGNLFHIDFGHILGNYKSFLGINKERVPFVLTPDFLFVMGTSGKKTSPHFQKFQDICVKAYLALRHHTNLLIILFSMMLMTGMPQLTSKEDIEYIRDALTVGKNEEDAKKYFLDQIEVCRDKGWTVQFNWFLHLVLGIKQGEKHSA
# T2 sequence (P42336 whole entry): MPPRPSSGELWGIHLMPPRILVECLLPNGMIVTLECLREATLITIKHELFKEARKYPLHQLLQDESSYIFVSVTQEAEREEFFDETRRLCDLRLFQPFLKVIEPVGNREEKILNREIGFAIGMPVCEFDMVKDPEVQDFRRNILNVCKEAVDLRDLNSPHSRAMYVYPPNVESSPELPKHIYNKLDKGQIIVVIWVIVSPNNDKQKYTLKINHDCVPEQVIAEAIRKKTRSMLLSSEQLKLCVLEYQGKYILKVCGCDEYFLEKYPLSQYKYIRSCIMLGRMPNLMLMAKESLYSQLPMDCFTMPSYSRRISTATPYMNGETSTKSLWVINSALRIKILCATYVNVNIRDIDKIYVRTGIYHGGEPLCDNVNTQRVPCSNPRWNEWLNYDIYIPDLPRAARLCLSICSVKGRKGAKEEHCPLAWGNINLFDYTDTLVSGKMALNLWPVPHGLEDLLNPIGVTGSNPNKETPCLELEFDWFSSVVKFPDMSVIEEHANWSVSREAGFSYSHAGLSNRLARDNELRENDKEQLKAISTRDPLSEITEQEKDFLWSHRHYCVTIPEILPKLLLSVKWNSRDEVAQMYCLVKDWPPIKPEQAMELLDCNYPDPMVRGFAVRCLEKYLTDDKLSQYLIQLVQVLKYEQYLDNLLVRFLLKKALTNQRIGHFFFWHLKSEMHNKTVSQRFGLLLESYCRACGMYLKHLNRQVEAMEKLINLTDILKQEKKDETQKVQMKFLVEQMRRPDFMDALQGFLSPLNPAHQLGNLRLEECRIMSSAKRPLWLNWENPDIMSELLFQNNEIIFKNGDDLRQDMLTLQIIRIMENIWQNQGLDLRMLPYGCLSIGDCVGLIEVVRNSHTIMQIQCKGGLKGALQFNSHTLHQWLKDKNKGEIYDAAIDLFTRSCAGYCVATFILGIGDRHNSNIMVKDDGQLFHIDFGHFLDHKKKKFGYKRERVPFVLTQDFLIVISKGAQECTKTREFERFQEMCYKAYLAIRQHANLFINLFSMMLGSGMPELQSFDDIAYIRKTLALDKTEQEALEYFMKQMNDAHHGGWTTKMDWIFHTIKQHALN
# T2 sequence (P27986 2-724 partner): as the sequence (P27986 2-724 partner) above
# T3 sequence (O00329 whole entry): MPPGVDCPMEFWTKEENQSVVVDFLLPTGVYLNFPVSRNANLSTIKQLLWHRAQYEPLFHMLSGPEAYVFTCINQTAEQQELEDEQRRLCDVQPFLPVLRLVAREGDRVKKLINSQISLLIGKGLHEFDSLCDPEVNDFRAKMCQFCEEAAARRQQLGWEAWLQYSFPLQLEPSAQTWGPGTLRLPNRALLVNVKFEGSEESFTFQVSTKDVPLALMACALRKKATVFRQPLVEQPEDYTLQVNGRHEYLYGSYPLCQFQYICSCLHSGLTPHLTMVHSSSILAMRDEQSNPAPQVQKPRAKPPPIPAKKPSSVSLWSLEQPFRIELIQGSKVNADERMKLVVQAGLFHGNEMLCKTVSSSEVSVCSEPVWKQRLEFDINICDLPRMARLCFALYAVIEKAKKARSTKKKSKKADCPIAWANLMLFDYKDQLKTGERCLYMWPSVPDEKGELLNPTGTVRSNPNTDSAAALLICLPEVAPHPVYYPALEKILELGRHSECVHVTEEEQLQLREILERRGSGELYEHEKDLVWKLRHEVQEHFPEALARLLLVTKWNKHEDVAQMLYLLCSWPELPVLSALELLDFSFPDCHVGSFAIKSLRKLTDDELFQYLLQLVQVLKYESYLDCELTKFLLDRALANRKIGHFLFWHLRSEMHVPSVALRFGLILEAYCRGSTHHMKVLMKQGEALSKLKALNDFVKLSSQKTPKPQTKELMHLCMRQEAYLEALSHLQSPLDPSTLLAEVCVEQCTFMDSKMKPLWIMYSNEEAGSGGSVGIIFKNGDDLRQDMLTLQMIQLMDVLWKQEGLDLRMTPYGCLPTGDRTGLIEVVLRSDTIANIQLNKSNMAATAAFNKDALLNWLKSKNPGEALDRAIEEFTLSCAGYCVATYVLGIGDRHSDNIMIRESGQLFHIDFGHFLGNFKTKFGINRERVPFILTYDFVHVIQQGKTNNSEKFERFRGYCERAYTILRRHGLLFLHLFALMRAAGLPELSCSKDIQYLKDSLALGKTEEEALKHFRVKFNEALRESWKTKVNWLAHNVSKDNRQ
# T3 sequence (P27986 2-724 partner): as the sequence (P27986 2-724 partner) above
structure (smiles),measurement,setting,value
Cc1ccc([N+](=O)[O-])cc1S(=O)(=O)N(C)/N=C/c1cnc2ccc(Br)cn12 [PIK-75],IC50,[1],26 nM
Nc1ncnc2c1ncn2[C@@H]1O[C@H](COP(=O)(O)OP(=O)(O)OP(=O)(O)O)[C@@H](O)[C@H]1O [ATP],Km,[2],(B) Km for ATP in μM
same,Km,[3],(B) Km for ATP in μM
same,Km,[4],(B) Km for ATP in μM
same,Km,[5],(B) Km for ATP in μM
Cc1cc([C@H](C)Nc2ccccc2)c2oc(N3CCOCC3)cc(=O)c2c1 [PIK108],IC50,[6],14 nM
